Measured values reported in patent US20060293216A1, “Pharmaceutical compositions comprising an active agent and chitosan for sustained drug release or mucoadhesion” (ADVANCED BIOPOLYMERS AS, priority 2003, published 2006).

Experiments:
Assay type in all cases: physicochemical
[1] = Release of acetylsalicylic acid from chitosan (dialysis, UV); settings: acetylsalicylic acid 100 mg, chitosan 250 mg, against tris buffer pH7
Protocol: Acetylsalicylic acid (100 mg) and chitosan (various degrees of acetylation) (250 mg) were added to a diluted aqueous HCl solution at pH 2 (10 ml). The mixture was stirred for 30 minutes at 80° C., cooled to room temperature, transferred to a dialysis tube (cut off 12-14 kDa) and dialysed against tris buffer pH7 (100 ml). The amount of acetylsalicylic acid in the dialysate was determined by UV.
(§1) An experiment without chitosan was performed as a comparison.
The amounts of acetylsalicylic acid in dialysate are shown in Table 1 as a percentage of maximum detected amounts.

[2] = Release of warfarin from warfarin/chitosan (dialysis, UV 293 nm); settings: buffered solution pH 7.4
Protocol: The salt of warfarin/chitosan (from Example 7 above) (1.09 g) was suspended in a buffered solution with pH 7.4 (10 ml). The suspension was transferred into the dialysis tube (cut off 12-14 kDa) before the tube was transferred into a buffered solution of pH 7.4 (100 ml) under continuous stirring. 2 ml samples of the dialysate were taken at different times and the UV-absorbances measured with an UV-apparatus at 293 nm. As a control experiment, warfarin (0.38 g, 1.2 mmol) was dissolved in a buffered solution of pH 7.4 (10 ml) and transferred into the dialysis tube (cut off 12-14 kDa). 2 ml samples of the dialysate were taken at different times and the UV-absorbances measured with an UV-apparatus at 293 nm. The amounts of warfarin in dialysate are shown in Table 3 as a percentage of maximum detected amounts.

[3] = Effect of chitosan on availability of norfloxacin (dialysis, UV); settings: norfloxacin 100 mg, against tris buffer pH 7
Protocol: Norfloxacin (100 mg) and chitosan (FA=0.35, η=1250) (250 mg) were added to a diluted aqueous HCl solution pH 2 (10 ml). The mixture was stirred for 2 hours at 80° C., cooled to room temperature and dialysed against tris buffer pH 7 (100 ml). The amount of norfloxacin in dialysate was determined by UV.
as §1
The amounts of norfloxacin in dialysate are shown as a percentage of maximum detected amounts.

[4] = Release of paracetamol through a dialysis membrane with and without chitosan; settings: 10 mM paracetamol in 154 mM NaCl, pH 4.5; 3 (w/v)% chitosan (FA 0.41, hydrochloride salt); followed for 2 days; FIG. 1
Protocol: The chitosan used in this Example was prepared from a chitosan produced as described in WO 03/011912 (FA 0.41, [η]=1060 ml/g), which was depolymerized and at the same time converted to the chitosan hydrochloride salt using 3M ethanolic HCl. Excess ethanolic chitosan was removed, the chitosan washed with excess 70% ethanol, 96% ethanol and finally dried to obtain the chitosan hydrochloride salt. The intrinsic viscosity was determined to 200 ml/g, corresponding to a number-average molecular weight of 40 000 (Anthonsen et al., 1993, Carbohydr. Polym. (1993) 22 193-201). 10 mM Paracetamol was dissolved in 154 mM NaCl at pH 4.5. Each of the solutions containing salicylate or paracetamol was added to a small glass vial (10 ml) equipped with a dialysis membrane (d=14.3 mm, cut off 10-12 kDa). The glass vials were placed in a 1 litre reservoir containing 154 mM NaCl, pH 4.5. Samples of 3.0 ml were regularly withdrawn from the reservoir and the absorbance was measured at 297.0 nm (salicylic acid) and 243.3 nm (paracetamol). Each experiment was run with 6 parallels. The same experiment was performed with paracetamol and the salicylate solutions to which had been added 3 (w/v)% of the chitosan. […] No difference in the release profile of the neutral drug paracetamol with and without chitosan could be detected.

[5] = Release of salicylate through a dialysis membrane with and without chitosan; settings: 30 mM salicylate in 154 mM NaCl, pH 4.5; 3 (w/v)% chitosan (FA 0.41, hydrochloride salt); FIG. 2
Protocol: The chitosan used in this Example was prepared from a chitosan produced as described in WO 03/011912 (FA 0.41, [η]=1060 ml/g), which was depolymerized and at the same time converted to the chitosan hydrochloride salt using 3M ethanolic HCl. Excess ethanolic chitosan was removed, the chitosan washed with excess 70% ethanol, 96% ethanol and finally dried to obtain the chitosan hydrochloride salt. The intrinsic viscosity was determined to 200 ml/g, corresponding to a number-average molecular weight of 40 000 (Anthonsen et al., 1993, Carbohydr. Polym. (1993) 22 193-201). 30 mM Salicylic acid was dissolved in distilled water upon addition of equimolar amounts of sodium hydroxide, and sodium chloride was added to a final concentration of 154 mM. The pH was adjusted to 4.5. Each of the solutions containing salicylate or paracetamol was added to a small glass vial (10 ml) equipped with a dialysis membrane (d=14.3 mm, cut off 10-12 kDa). The glass vials were placed in a 1 litre reservoir containing 154 mM NaCl, pH 4.5. Samples of 3.0 ml were regularly withdrawn from the reservoir and the absorbance was measured at 297.0 nm (salicylic acid) and 243.3 nm (paracetamol). Each experiment was run with 6 parallels. The same experiment was performed with paracetamol and the salicylate solutions to which had been added 3 (w/v)% of the chitosan. […]

In the case of `CC(=O)Oc1ccccc1C(=O)O` [No chitosan, Acetylsalicylic acid], the “amount of acetylsalicylic acid in dialysate” value (shortened to “amount of acetylsalicylic acid”) ([1]; time for dialysis 0.25 hours) is reported as 52 percentage of maximum detected amounts, the “amount of acetylsalicylic acid” value ([1]; time for dialysis 0.5 hours) is reported as 87 percentage of maximum detected amounts and the “amount of acetylsalicylic acid” value ([1]; time for dialysis 1 hour) is reported as 97 percentage of maximum detected amounts. For the same compound, the “amount of acetylsalicylic acid” value ([1]; time for dialysis 2 hours) was 98 percentage of maximum detected amounts and the “amount of acetylsalicylic acid” value ([1]; time for dialysis 19 hours) was 99 percentage of maximum detected amounts.

In the case of `CC(=O)CC(c1ccccc1)c1c(O)c2ccccc2oc1=O` (stereo not shown) [Warfarin], the “amount of warfarin in dialysate” value ([2]; time 2½ hours) is reported as 49.8 percentage of maximum detected amounts, the “amount of warfarin in dialysate” value ([2]; time 4 hours) is reported as 49.0 percentage of maximum detected amounts and the “amount of warfarin in dialysate” value ([2]; time 20 hours) is reported as 100 percentage of maximum detected amounts. The “amount of warfarin in dialysate” value ([2]; time ½ hours) was 14.8 percentage of maximum detected amounts.

With `CCn1cc(C(=O)O)c(=O)c2cc(F)c(N3CCNCC3)cc21` [Without chitosan, Norfloxacin] the “amount of norfloxacin in dialysate” value ([3]; time for dialysis 0.25 hours) was 66 percentage of maximum detected amounts, the “amount of norfloxacin in dialysate” value ([3]; time for dialysis 0.5 hours) was 72 percentage of maximum detected amounts and the “amount of norfloxacin in dialysate” value ([3]; time for dialysis 1 hour) was 100 percentage of maximum detected amounts. For the same compound, the “amount of norfloxacin in dialysate” value ([3]; time for dialysis 2 hours) was 100 percentage of maximum detected amounts and the “amount of norfloxacin in dialysate” value ([3]; time for dialysis 4 hours) was 100 percentage of maximum detected amounts.

In the case of `CC(=O)Nc1ccc(O)cc1` [paracetamol, Paracetamol], the “release profile of paracetamol with and without chitosan” value [4] is reported as “No difference”.

In the case of `O=C(O)c1ccccc1O` [salicylate, Salicylic acid], the “release of salicylate with and without chitosan” value [5] is reported as “clear difference”.
